# Counter-ions that a name gives are not always drawn. Like-named read-outs stand apart in the source and are kept apart here. Peptide text beside a SMILES is read from it. * marks the point of attachment. Cbz = O=C(OCc1ccccc1)*; CH2Cl = ClC*; CH2F = FC*
# How the values were obtained:
# Type in all cases: cell-based, human
# [1] = tested on: ARID1A-KO HCT116 cells; test: Drug library screen, cell viability (CellTiter-Glo); conditions: for viability at 10 µM: Homo sapiens, HCT-116, 120 h, read-out: Cell viability, KO
# In short: (§1)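 Luminescent ATP read-out (CellTiter-Glo) at day 5, normalised to solvent (DMSO) controls, in paired HCT116 lines, ARID1A knockout versus wild type. Candidates selected where KO cells fell below 40% viability and WT cells stayed above 80%.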
# [2] = as above; conditions: human; HCT116 ARID1A-WT; 10 μM for 5 days; relative to cells treated with solvent (DMSO); read-out: Cell viability, WT
# In short: as §1
# [3] = tested on: ARID1A-WT HCT116 cells; test: as above
# In short: as §1
# [4] = HCT116 ARID1A-KO, 10 μM for 5 days, relative to cells treated with solvent (DMSO)
# [5] = HCT116 ARID1A-WT, 10 μM for 5 days, relative to cells treated with solvent (DMSO)
Compound,"viability at 10 µM [1, 4] [%]","viability at 5 days, 10 μM [2] [%]","Cell viability, KO [1, 4]","Cell viability, WT [3, 5]",other results
"C[C@H]1O[C@@H](n2cnc3c(N)ncnc32)C[C@@H]1O [2′,5′-dideoxyadenosine]",172,,,,viability [2]: 198%
Cc1ncc2ccccc2c1C#N [4-cyano-3-methylisoquinoline],164,143,,,
CNc1ccc2oc(C[C@H]3O[C@@]4(CC[C@H]3C)O[C@H]([C@H](C)C(=O)c3ccc[nH]3)[C@H](C)C[C@H]4C)nc2c1C(=O)O [A23187],8.67,,,,viability [2]: 6.25%
CN(C)CC[C@H](CSc1ccccc1)Nc1ccc(S(=O)(=O)NC(=O)c2ccc(N3CCN(Cc4ccccc4-c4ccc(Cl)cc4)CC3)cc2)cc1[N+](=O)[O-] [ABT-737],89.5,94.4,,,
"C[C@]1(c2nc3c(C(N)=O)cccc3[nH]2)CCCN1 [ABT-888 (Veliparib), Veliparib]",53.3,62.7,,,
"CNCc1ccc(-c2[nH]c3cc(F)cc4c3c2CCNC4=O)cc1 [AG014699 (Rucaparib), Rucaparib]",16,18.7,,,
CC[C@@]1(O)C[C@H](O[C@H]2C[C@H](N(C)C)[C@H](O[C@H]3C[C@H](O)[C@H](O[C@H]4CCC(=O)[C@H](C)O4)[C@H](C)O3)[C@H](C)O2)c2c(cc3c(c2O)C(=O)c2c(O)cccc2C3=O)[C@H]1C(=O)OC [Aclarubicin],5.53,,,,viability [2]: 4.48%
CCCCC[C@H](CC(=O)NO)C(=O)N[C@H](C(=O)N1CCC[C@H]1CO)C(C)C [Actinonin],103,88.5,,,
CC(C)C[C@@H](N)[C@H](O)C(=O)N[C@H](C(=O)N[C@H](C(=O)N[C@@H](CC(=O)O)C(=O)O)C(C)C)C(C)C [Amastatin],110,102,,,
N=C(N)NC(=O)c1nc(Cl)c(N)nc1N [Amiloride],113,106,,,
CCC1(c2ccc(N)cc2)CCC(=O)NC1=O (stereo not shown) [Aminoglutethimide],107,108,,,
"N=C(N)NN [Aminoguanidine, HCl]",128,188,,,
C[C@@]1(CO)[C@H](O)CC[C@@]2(C)[C@H]1CC[C@H]1C[C@@H]3C[C@@]12CC[C@]3(O)CO [Aphidicolin],11.9,14,,,
CNC(=O)c1ccccc1Sc1ccc2c(/C=C/c3ccccn3)n[nH]c2c1 [Axitinib],42.6,36.4,,,
COc1cc2nc(N3CCCN(C)CC3)nc(NC3CCN(Cc4ccccc4)CC3)c2cc1OC [BIX01294],4.49,2.57,,,
Cc1ccc2nc(NCCN)c3ncc(C)n3c2c1 [BMS-345541],19.7,11.9,,,
"NC(=O)c1ccc(I)c([N+](=O)[O-])c1 [BSI-201 (Iniparib), Iniparib]",93.3,63.5,,,
O=c1cc(-c2ccccc2)oc2cc(O)c(O)c(O)c12 [Baicalein],93.7,94.6,,,
NC(=O)c1ccccc1 [Benzamide],134,188,,,
CC(C)C[C@H](NC(=O)[C@@H](O)[C@H](N)Cc1ccccc1)C(=O)O [Bestatin],66.2,68.6,,,
Cc1c[nH]c(-c2cnc(NCCNc3ccc(C#N)cn3)nc2-c2ccc(Cl)cc2Cl)n1 [CT99021],73.5,63.8,,,
Cc1[nH]c(/C=C2\C(=O)Nc3ccc(S(=O)(=O)N(C)c4cccc(Cl)c4)cc32)c(C)c1C(=O)N1CCN(C)CC1 [SU11274],,,82.98,71.94,
CCN(CC)CCNC(=O)c1c(C)[nH]c(/C=C2\C(=O)Nc3ccc(Cl)cc32)c1C [SU11652],,,8.987,4.735,
Cn1cc(/C=C2\C(=O)Nc3ccc(S(N)(=O)=O)cc32)c2ccccc21 [Syk inhibitor],,,,,"Cell viability, KO [1]: 91.09; Cell viability, WT [3]: 58.62"
Brc1c(Br)c(Br)c2n[nH]nc2c1Br [TBB],,,147.5332,187.1148,
CCN1/C(=C/C(C)=O)Sc2ccc(OC)cc21 [TG003],,,138.6968,115.1966,
Cc1cccc(-c2[nH]ncc2-c2ccc3ncccc3n2)n1 [TGF-b RI kinase inhibitor II],,,104.5326,90.9,

Compound,"viability at 10 µM [1, 4] [%]","viability at 5 days, 10 μM [2] [%]","Cell viability, KO [1, 4]","Cell viability, WT [3, 5]",other results
C[n+]1ccc(-c2c3nc(c(-c4cc[n+](C)cc4)c4ccc([nH]4)c(-c4cc[n+](C)cc4)c4ccc([nH]4)c(-c4cc[n+](C)cc4)c4nc2C=C4)C=C3)cc1 [TMPyP4],,,32.37,19.35,
CCCCCCCCCCCCCCOc1ccc(C(=O)O)o1 [TOFA],,,74.56,75.72,
Nc1cccc(-c2cc3c(Oc4cccc(O)c4)ncnc3[nH]2)c1 [TWS119],,,,,"Cell viability, KO [1]: 23.39; Cell viability, WT [3]: 30.07"
Cc1cc(C=C2C(=O)C=CC2=O)cc(C)c1O [TX-1918],,,173.7673,117.0659,
CN(C)CCCCC(=O)Nc1ccc(NC(=S)NC(=O)c2ccc(C(C)(C)C)cc2)cc1 [Tenovin-6],,,5.579,2.514,
O=C(NCc1ccccc1)c1csc(Nc2ccncn2)n1 [Thiazovivin],,,30.49,50.22,
CC(C)n1nc(-c2cc3cc(O)ccc3[nH]2)c2c(N)ncnc21 [Torkinib],,,9.988,8.777,
CC(/C=C/C(=O)NO)=C\[C@@H](C)C(=O)c1ccc(N(C)C)cc1 [Trichostatin A],,,5,6.352,
CCOC(=O)c1c(C)[nH]c(/C=C2\C(=O)Nc3ccccc32)c1C [VEGF recptor 2 kinase inhibitor I],,,109.4563,106.2493,
CC(C)C[C@H](NC(=O)CNC(=O)OCc1ccccc1)C(=O)N[C@@H](Cc1ccccc1)C(=O)CCl [Z-GLF-CMK] (Cbz-Gly-Leu-Phe-CH2Cl),,,4.8907,4.255,
COC(=O)C[C@H](NC(=O)[C@H](C)NC(=O)[C@@H](NC(=O)OCc1ccccc1)C(C)C)C(=O)CF [Z-VAD-FMK] (Cbz-Val-Ala-Asp(OMe)-CH2F),,,128.7264,177.3841,
Cc1ccc(NC(=O)c2cccc(N(C)C)c2)cc1NC(=O)c1ccc(O)cc1 [ZM 336372],,,179.4192,121.6939,
C[C@H]1CCC/C=C/[C@@H]2C[C@H](O)C[C@H]2[C@H](O)/C=C/C(=O)O1 [brefeldin A],,,4.578,1.838,
c1cc(-c2cnn3cc(-c4ccc(OCCN5CCCCC5)cc4)cnc23)ccn1 [compound C],,,9.381,6.447,
Akt Inhibitor IV,,,5.523,3.276,
Antimycin A1,,,7.111,4.328,
Bleomycin sulfate,,,30.2,27.28,
Cytostatin,,,7.493,10.14,
GSK-3 inhibitor IX,,,147.7846,105.4779,
MEK inhibitor I,,,117.4589,77.6,
"Tamoxifen, citrate",,,18.66,24.8,
Tunicamycin,,,6.011,4.6969,
Valeryl salicylate,,,118.3391,169.5428,
a-Amanitin,,,10.21,8.977,
b-Rubromycin,,,93.87,88.7,
indirubin-3′-monoxime,,,124.9767,105.9954,

# — patent US20220087987A1, “A METHOD FOR TREATING SWI/SNF COMPLEX-DEFICIENT CANCERS COMPRISING GLUTATHIONE (GSH) METABOLIC PATHWAY INHIBITOR” (National Cancer Center, priority 2018, published 2022)
